The values below come from patent publication US20260217708A1, “FUSED BENZAZEPINE DERIVATIVES FOR USE IN THE TREATMENT OF CANCER AND EPILEPSY” (UCB BIOPHARMA SRL, priority 2023, published 2026).

In assay [1] the target is T1, system Xc^− (Homo sapiens, UniProt Q9UPY5).
T1 sequence (Q9UPY5 1-501): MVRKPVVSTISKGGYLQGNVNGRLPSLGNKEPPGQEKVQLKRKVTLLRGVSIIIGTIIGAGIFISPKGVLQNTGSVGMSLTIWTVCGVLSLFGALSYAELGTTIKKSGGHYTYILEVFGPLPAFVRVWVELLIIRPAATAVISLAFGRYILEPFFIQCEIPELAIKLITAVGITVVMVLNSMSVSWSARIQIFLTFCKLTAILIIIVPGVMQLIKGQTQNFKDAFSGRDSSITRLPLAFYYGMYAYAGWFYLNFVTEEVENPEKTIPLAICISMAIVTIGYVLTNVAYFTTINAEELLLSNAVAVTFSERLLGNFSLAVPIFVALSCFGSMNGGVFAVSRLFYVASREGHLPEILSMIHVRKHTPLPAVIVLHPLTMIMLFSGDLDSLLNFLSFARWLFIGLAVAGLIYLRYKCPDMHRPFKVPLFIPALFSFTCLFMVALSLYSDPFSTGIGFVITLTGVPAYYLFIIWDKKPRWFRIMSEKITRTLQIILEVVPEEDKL
T1 sequence (P08195 1-529 partner): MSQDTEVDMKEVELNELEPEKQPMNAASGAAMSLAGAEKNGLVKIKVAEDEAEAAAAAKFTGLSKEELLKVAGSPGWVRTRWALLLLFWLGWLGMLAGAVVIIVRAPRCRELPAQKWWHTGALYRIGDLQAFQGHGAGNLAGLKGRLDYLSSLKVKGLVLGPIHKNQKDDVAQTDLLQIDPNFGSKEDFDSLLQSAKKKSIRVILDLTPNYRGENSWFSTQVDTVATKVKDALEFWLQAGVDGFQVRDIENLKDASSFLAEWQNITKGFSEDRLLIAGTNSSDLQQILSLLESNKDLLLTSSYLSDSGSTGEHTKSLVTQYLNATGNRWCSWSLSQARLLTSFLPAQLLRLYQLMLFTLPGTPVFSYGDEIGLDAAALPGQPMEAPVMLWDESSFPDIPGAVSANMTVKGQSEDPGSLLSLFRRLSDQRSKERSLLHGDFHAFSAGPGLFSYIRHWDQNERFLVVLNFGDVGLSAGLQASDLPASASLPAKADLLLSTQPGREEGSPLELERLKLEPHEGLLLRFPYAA
In words: Cystine-induced glutamate release assay. It counts as cell-based. Details: endogenous in cells; host or cells: H4 cells. To be noted: H4 cells, sodium-free HEPES buffer, 50 μM L-Cystine, 2 hours, Amplex Red glutamate readout; read-out: pIC50 Cystine-induced glutamate release assay (converted). The method, boiled down:
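IC50 (reported as pIC50) normalized to DMSO 1% and Erastin 50 μM controls, from Amplex Red fluorescence of glutamate exported into supernatant. H4 cells were washed into sodium-free buffer to exclude EAAT transport, then given compound with 50 μM L-cystine for 2 h in the incubator.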

In assay [2] the target is T1, system Xc^−. Briefly: [^14C]L-Cystine uptake assay. Type of assay: cell-based. Details: endogenous in cells; host or cells: H4 cells. To be noted: H4 cells, sodium-free HEPES buffer, 0.5 μM L-[14C]Cystine and 4.5 μM L-Cystine, 1 hour at 37° C.; read-out: pIC50 [^14C] L-Cystine uptake assay (converted). The method in brief: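 Compound effect is given as pIC50, taken between controls of 1% DMSO and 50 μM Erastin. Human H4 cells were pretreated 15 min with compound in sodium-free buffer, then took up 0.5 μM [14C]cystine with 4.5 μM cold cystine for 1 hour at 37° C, read by scintillation proximity counting.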

As for `Cc1cc2c(c(=O)n1C1CC1)-c1cccnc1C(C)C(=O)N2CC(=O)Nc1ccc(Cl)c(F)c1` (stereo not drawn) [#179, N-(4-chloro-3-fluoro-phenyl)-2-(4-cyclopropyl-5,10-dimethyl-3,9-dioxo-4,8,12-triazatricyclo[9.4.0.0^2,7]pentadeca-1(11),2(7),5,12,14-pentaen-8-yl)acetamide], the IC50 is 39.8 to 100 nM on system Xc^− [1] and 15.8 to 39.8 nM on system Xc^− [2].
On to `COc1cc(F)c2c(c1)N(CC(=O)Nc1ccc(Cl)c(F)c1)C(=O)C(C)c1ncncc1-2` (single isomer, unassigned) [#371, N-(4-chloro-3-fluoro-phenyl)-2-[11-fluoro-9-methoxy-5-methyl-6-oxo-5H-pyrimido[4,5-d][1]benzazepin-7-yl]acetamide], for which the IC50 on system Xc^− [1] and at system Xc^− [2] was below 15.8 nM in each case.
With `Cc1cc2c(c(=O)n1C)-c1cccnc1C(C)C(=O)N2CC(=O)Nc1ccc(Cl)c(F)c1` (stereo not drawn) [#254, N-(4-chloro-3-fluoro-phenyl)-2-(4,5,10-trimethyl-3,9-dioxo-4,8,12-triazatricyclo[9.4.0.0^2,7]pentadeca-1(15),2(7),5,11,13-pentaen-8-yl)acetamide], the IC50 on system Xc^− [1] and on system Xc^− [2] was below 15.8 nM each time.
For `CC1C(=O)N(CC(=O)Nc2ccc(Cl)c(F)c2)c2cc(C#N)cc(F)c2-c2cccnc21` (single isomer, unassigned) [#310, N-(4-chloro-3-fluoro-phenyl)-2-[9-cyano-11-fluoro-5-methyl-6-oxo-5H-pyrido[2,3-d][1]benzazepin-7-yl]acetamide], the IC50 on system Xc^− [1] and on system Xc^− [2] was below 15.8 nM each time.
As to `Cc1cc2c(c(N)n1)-c1cccnc1CC(=O)N2CC(=O)Nc1ccc(C(F)(F)F)cc1` [#103, 2-(3-amino-5-methyl-9-oxo-4,8,12-triazatricyclo[9.4.0.0^2,7]pentadeca-1(11),2(7),3,5,12,14-hexaen-8-yl)-N-[4-(trifluoromethyl)phenyl]acetamide], the IC50 at system Xc^− [1] and at system Xc^− [2] was 100 to 501 nM in each case.
In the case of `CC1C(=O)N(CC(=O)Nc2ccc(C(F)F)cc2)c2ccnc(Cl)c2-c2cccnc21` (single isomer, unassigned) [#398, N-[4-(difluoromethyl)phenyl]-2-[3-chloro-10-methyl-9-oxo-4,8,12-triazatricyclo[9.4.0.0^2,7]pentadeca-1(11),2(7),3,5,12,14-hexaen-8-yl]acetamide], the IC50 at system Xc^− [1] is 15.8 to 39.8 nM; on system Xc^− [2], 39.8 to 100 nM.
In the same order, the values of `Cc1cc2c(c(F)n1)-c1cncnc1[C@@H](C)C(=O)N2CC(=O)Nc1ccc(C(F)(F)F)cc1` (single isomer, unassigned) [#202, Enantiomer (8R) or (8S) of 2-[15-fluoro-8,13-dimethyl-9-oxo-4,6,10,14-tetrazatricyclo[9.4.0.0^2,7]pentadeca-1(15),2(7),3,5,11,13-hexaen-10-yl]-N-[4-(trifluoromethyl)phenyl]acetamide] are 39.8 to 100 nM and 15.8 to 39.8 nM.
As to `CC1C(=O)N(CC(=O)Nc2ccc(Cl)c(F)c2)c2cc(CN3CC(F)(F)C3)ccc2-c2cccnc21` (stereo not drawn) [#344, N-(4-chloro-3-fluoro-phenyl)-2-[9-[(3,3-difluoroazetidin-1-yl)methyl]-5-methyl-6-oxo-5H-pyrido[2,3-d][1]benzazepin-7-yl]acetamide], the IC50 at system Xc^− [1] was 39.8 to 100 nM; on system Xc^− [2] it was 100 to 501 nM.
In the same order, the values of `COc1cc(F)c2c(c1)N(CC(=O)Nc1ccc(Cl)c(F)c1)C(=O)C(C)c1ncccc1-2` (single isomer, unassigned) [#316, N-(4-chloro-3-fluoro-phenyl)-2-[11-fluoro-9-methoxy-5-methyl-6-oxo-5H-pyrido[2,3-d][1]benzazepin-7-yl]acetamide] are 15.8 to 39.8 nM and 15.8 to 39.8 nM.
As for `Cc1cc2c(c(F)n1)-c1ccc(C)nc1[C@@H](C)C(=O)N2CC(=O)Nc1ccc(C(F)(F)F)cc1` (single isomer, unassigned) [#204, Enantiomer (10R) or (10S) of 2-[3-fluoro-5,10,13-trimethyl-9-oxo-4,8,12-triazatricyclo[9.4.0.0^2,7]pentadeca-1(11),2(7),3,5,12,14-hexaen-8-yl]-N-[4-(trifluoromethyl)phenyl]acetamide], the results for the IC50 on system Xc^− [1] and on system Xc^− [2] were 39.8 to 100 nM and below 15.8 nM, respectively.
For `Cc1cc2c(n(C)c1=O)-c1ccccc1CC(=O)N2CC(=O)Nc1ccc(Cl)c(F)c1` [#350, N-(4-chloro-3-fluoro-phenyl)-2-(1,3-dimethyl-2,6-dioxo-7H-pyrido[3,2-d][3]benzazepin-5-yl)acetamide], in that order: 15.8 to 39.8 nM and 15.8 to 39.8 nM.
For `Cc1cc2c(c(F)n1)-c1cccnc1C(C)C(=O)N2CC(=O)Nc1ccc(C2CC2)c(F)c1` (stereo not drawn) [#135, N-(4-cyclopropyl-3-fluoro-phenyl)-2-(3-fluoro-5,10-dimethyl-9-oxo-4,8,12-triazatricyclo[9.4.0.0^2,7]pentadeca-1(11),2(7),3,5,12,14-hexaen-8-yl)acetamide], in that order: 15.8 to 39.8 nM and below 15.8 nM.
Regarding `Cc1cc2c(cn1)-c1cc(C)c(C)cc1N(CC(=O)Nc1ccc(C(F)(F)F)cc1)C(=O)C2` [#21, N-[4-(trifluoromethyl)phenyl]-2-(3,9,10-trimethyl-6-oxo-5H-pyrido[4,3-d][1]benzazepin-7-yl)acetamide], the IC50 was 100 to 501 nM on system Xc^− [1] and 39.8 to 100 nM on system Xc^− [2].
In the same order, the values of `CC1C(=O)N(CC(=O)Nc2ccc(C(F)F)cc2)c2cc(N3[C@@H]4CCC[C@H]3C4)nc(F)c2-c2cccnc21` (single isomer, unassigned) [#287, 2-[5-(6-azabicyclo[3.1.1]heptan-6-yl)-3-fluoro-10-methyl-9-oxo-4,8,12-triazatricyclo[9.4.0.0^2,7]pentadeca-1(15),2,4,6,11,13-hexaen-8-yl]-N-[4-(difluoromethyl)phenyl]acetamide] are 15.8 to 39.8 nM and below 15.8 nM.
Take `[2H]C([2H])([2H])[C@H]1C(=O)N(CC(=O)Nc2ccc(C(F)(F)F)cc2)c2cc(C)nc(F)c2-c2cccnc21` (single isomer, unassigned) [#203, Enantiomer (10R) or (10S) of 2-[3-fluoro-5-methyl-9-oxo-10-(trideuteriomethyl)-4,8,12-triazatricyclo[9.4.0.0^2,7]pentadeca-1(15),2(7),3,5,11,13-hexaen-8-yl]-N-[4-(trifluoromethyl)phenyl]acetamide]: the IC50 on system Xc^− [1] is 15.8 to 39.8 nM; at system Xc^− [2], below 15.8 nM.
As to `CC1C(=O)N(CC(=O)Nc2ccc(C(F)(F)F)cc2)c2ccnc(F)c2-c2cccnc21` (single isomer, unassigned) [#187, enantiomer (10R) or (10S) of 2-[3-fluoro-10-methyl-9-oxo-4,8,12-triazatricyclo[9.4.0.0^2,7]pentadeca-1(11),2(7),3,5,12,14-hexaen-8-yl]-N-[4-(trifluoromethyl)phenyl]acetamide], the results for the IC50 on system Xc^− [1] and on system Xc^− [2] were 39.8 to 100 nM and 15.8 to 39.8 nM, respectively.
For `CC1C(=O)N(CC(=O)Nc2ccc(C(F)(F)F)nc2)c2cc(Cl)cc(F)c2-c2cccnc21` (single isomer, unassigned) [#331, 2-[9-chloro-11-fluoro-5-methyl-6-oxo-5H-pyrido[2,3-d][1]benzazepin-7-yl]-N-[6-(trifluoromethyl)-3-pyridyl]acetamide], in that order: 39.8 to 100 nM and 15.8 to 39.8 nM.
For `Cc1cc2c(c(F)n1)-c1cccnc1[C@@H](C)C(=O)N2CC(=O)Nc1ccc(C2CC2)c(F)c1` [#144, N-(4-cyclopropyl-3-fluoro-phenyl)-2-[(10R)-3-fluoro-5,10-dimethyl-9-oxo-4,8,12-triazatricyclo[9.4.0.0^2,7]pentadeca-1(11),2(7),3,5,12,14-hexaen-8-yl]acetamide], the IC50 at system Xc^− [1] was 15.8 to 39.8 nM; on system Xc^− [2], below 15.8 nM.
